Data on 3 compounds can be found in US20110190307A1, “Assay” (priority 2008, published 2011).

For test [1], the system named is primary mammalian motor neurons. Briefly: neuroprotective effect on primary mammalian motor neurons in culture under stress. The test is classed as cell-based. Particulars: 0.5 and 5 μM applied 1 hr before stressors (H2O2 and staurosporin), 24 hours, MAP-2 positive cells counted. On the procedure: Neuroprotection is measured as a % of cells counted in each experimental condition to the number of control, untreated cells run at the same time on the same plate. NPA was applied 1 hr before stressors (H2O2 and staurosporin), at 2 concentrations: 0.5 and 5 μM. Stressors were applied for 24 hours, then plates were fixed and stained for MAP-2 and then positive cells counted.

Test [2] deals with HB9:GFP+ motor neurons in the lesioned adult spinal cord. In words: adult validation paradigm: motor neuron regeneration after spinal cord lesion. Type of test: in vivo, zebrafish. As to conditions: 2 weeks post-lesion; for number of newly generated motor neurons in HB9:GFP transgenic animals: within 1.5 mm surrounding the lesion site. The protocol:
As described previously (Becker et al., 1997), fish were anesthetized by immersion in 0.033% aminobenzoic acid ethylmethylester (MS222; Sigma, St. Louis, Mo.) in PBS for 5 min. A longitudinal incision was made at the side of the fish to expose the vertebral column. The spinal cord was completely transected under visual control 4 mm caudal to the brainstem-spinal cord junction.
Stereological counts were performed in confocal image stacks of three randomly selected vibratome sections from the region up to 750 μm rostral to the lesion site and three sections from the region up to 750 μm caudal to the lesion site. Cell numbers were then calculated for the entire 1.5 mm surrounding the lesion site.
Different small molecule libraries may be used for screening. It is possible to screen the Spectrum Collection of FDA approved drugs and natural products and other bioactive components (2000 compounds), the Diversity Set of the US National Cancer Institute (1990 compounds), the Tocriscreen library (1120 compounds) and the Prestwick Chemical Library (1120 compounds). Due to some overlap between libraries, we will test approximately 5600 individual compounds. All of these libraries are commercially available. Primary screen: Compounds are applied to HB9:GFP embryos in 24 well plates at a concentration of 10-25 μM in accordance with other studies (Zon and Peterson, 2005) at 6 hpf (mid-gastrula) and trajectories of motor axons analysed at 24 hpf. Analysing 2-3 embryos per compound is sufficient, because the pattern of motor axon outgrowth is highly stereotypic, making this a robust and quick screening tool. No anaesthesia or other manipulations are necessary to observe primary motor axons. Missing, stunted, excessively branched or supernumerary motor axons (FIG. 8), which are easily detectable in a fluorescence-equipped stereo-microscope, are classified as hits. Apparently toxic substances will be re-evaluated at lower concentrations. Specificity of the effect will be established in dose-response experiments for each hit. Secondary screen: To exclude non-specific effects on motor axons due to gross alterations of the embryos occurring during early drug application, and to more directly analyse incipient differentiation of motor neurons, we use the islet-1:GFP fish. Hit compounds from the primary screen are applied at 24 hpf, when early embryogenesis is complete, but before islet-1:GFP+ motor neurons have been born. The read-out of this screen is whether the rostro-caudal band of late born secondary motor neurons in the ventral spinal cord is complete. […] To do this, 20 embryos per treatment will be dechorionated, anesthetised (tricaine 1:10000) and analysed under a stereomicroscope. […]

The subject of test [3] is motor axons in HB9:GFP embryos. Briefly: primary screen paradigm: motor axons in HB9:GFP transgenic embryos. The test is classed as in vivo, zebrafish. As to conditions: 24 hpf HB9:GFP embryos, compound applied at 6 hpf. On the procedure:
(§1) We use two transgenic lines, in which expression of green fluorescent protein (GFP) is controlled by the motor neuron specific promoters HB9 or islet-1 in the spinal cord. In the HB9:GFP line (Flanagan-Steet et al., 2005), primary motor neurons and their ventral axons are labelled at 24 hours post-fertilisation (hpf). Aberrations in the highly stereotypic pattern of primary motor axons are easily detectable in a stereo-microscope (FIG. 8). […] Thus, acceleration or delay of motor neuron differentiation can readily be assessed under a stereo-microscope.
(§2) Different small molecule libraries may be used for screening. […] Primary screen: Compounds are applied to HB9:GFP embryos in 24 well plates at a concentration of 10-25 μM in accordance with other studies (Zon and Peterson, 2005) at 6 hpf (mid-gastrula) and trajectories of motor axons analysed at 24 hpf. […] Missing, stunted, excessively branched or supernumerary motor axons (FIG. 8), which are easily detectable in a fluorescence-equipped stereo-microscope, are classified as hits. Apparently toxic substances will be re-evaluated at lower concentrations. […] The read-out of this screen is whether the rostro-caudal band of late born secondary motor neurons in the ventral spinal cord is complete. […] To do this, 20 embryos per treatment will be dechorionated, anesthetised (tricaine 1:10000) and analysed under a stereomicroscope. […]

The test system of test [4] is islet-1:GFP+ motor neurons in the ventral spinal cord. Briefly: secondary screen paradigm: motor neuron differentiation in islet-1:GFP transgenic embryos. The test is classed as in vivo, zebrafish. On the procedure: as §1, §2

SMILES strings stand for the structures. “Also recorded” adds a separate entry of the source.

For `CCCN1CCc2cccc3c2[C@H]1Cc1ccc(O)c(O)c1-3.Cl` [NPA, R(−)-Propylnorapomorphine], the “neuroprotection: number of neurons surviving stress conditions (% of untreated control cells)” value in test [1] is “significantly increases the number of mammalian neurons surviving stress conditions”.
Consider `C[C@H]1CC[C@]2(NC1)O[C@H]1C[C@H]3[C@@H]4CC[C@H]5C[C@@H](O)CC[C@]5(C)[C@H]4CC[C@]3(C)[C@H]1[C@@H]2C` [tomatidine], for which the “number of large motor neurons” value in test [2] (intraperitoneal injection, p=0.0008) is listed as 20±4.2. For the same compound, in test [2] (intraperitoneal injection), the “number of newly generated motor neurons in HB9:GFP transgenic animals” value amounted to 747±42.2 cells.
As to `CC1=C2C[C@H]3[C@@H](CC=C4C[C@@H](O)CC[C@@]43C)[C@@H]2CC[C@]12O[C@@H]1C[C@H](C)CN[C@H]1[C@H]2C` [cyclopamine], in test [2] (compared to tomatidine-injected animals), the “reduction in the number of newly generated motor neurons” value is on record as 50%. The “number of newly generated motor neurons in HB9:GFP transgenic animals” value in test [2] (intraperitoneal injection) is reported as 377±45.7 cells. Also, the “absence of motor axons” value in test [3] is recorded as “complete”. The “embryos with a complete band of differentiated motor neurons” value in test [4] (72 hpf, controls 82%, p<0.00001) came to 11%. For the same compound, the “effect on motor neuron differentiation (in words)” value in test [4] (islet-1:GFP embryos, compound applied at 24 hpf, read at 48 hpf and 72 hpf) was “blocks their differentiation; also recorded: retarded motor neuron differentiation”.
